Results: US20250296939A1, “BENZOTHIOPHENE COMPOUND” (Kyoto Pharmaceutical Industries, Ltd., priority 2022, published 2025)

Legend:
[1] = target: GST-fused human Keap1 (amino acid residues: 325-642) protein (Homo sapiens (Human), UniProt Q14145); assay: FP assay (in vitro): inhibition of binding between Nrf2 and Keap1 by fluorescence polarization; settings: 20 nM GST-fused human Keap1, 10 nM FITC-labeled Nrf2 peptide, 2 hr at room temperature
Procedure: Experimental Example 1: FP Assay (In Vitro)
The inhibitory activity of test compounds on the binding between Nrf2 and Keap1 was determined by fluorescence polarization. A solution of 50 mM Tris-HCl pH.8.0 (NACALAI, REF: 06938-15), and 5 mM DTT (SIGMA-ALDRICH, REF: 646563-10X.5 mL) was used as a buffer solution. 8 μL of a buffer solution containing 40 nM GST-fused human Keap1 (amino acid residues: 325-642) protein (Protein tech, REF: Ag0779) was taken in a black 384-well plate (final concentration 20 nM), and 4 μL of the test compound solution prepared to each concentration in buffer solution was added thereto. A well containing a portion of the buffer solution without Keap1 was placed as a negative control. A well with no compound was used as a positive control. 40 nM of FITC-labeled Nrf2 peptide (FITC-X-LQLDEETGEFLPIQ (X=ε-Acp), Peptide Institute Inc.) was added thereto (10 nM final concentration). The wells were incubated at room temperature for 2 hr, and then fluorescence polarization was measured with a plate reader SPECTRAMAX Paradigm (Molecular devices) at excitation wavelength of 485 nm and fluorescence wavelength of 535 nm. The fluorescence polarization of the negative control was set to 100% inhibition and that of the positive control to 0% inhibition, and the inhibitory rate upon addition of the test compound was calculated using the following formula.

[2] = test system: NQO1 activity in Hepa1c1c7 cells; assay: NAD(P)H: quinone oxidoreductase-1 (NQO1) enzyme induction assay (in vitro); format: cell-based, mouse; settings: about 48 hr, ratio from the base without the compound; for fold induction at 0.4 µM: Mus musculus, Hepa-1c1c7, NQO1 activity upon addition of 400 nM of test compound
Procedure: Experimental Example 2: NAD(P)H: Quinone Oxidoreductase-1 (NQO1) Enzyme Induction Assay (In Vitro)
The NQO1 assay was performed based on a previous report (Methods in Enzymology 2004; 382: 243-258). Hepa1c1c7 cells (mouse hepatocyte cell line, ATCC, cat. no. CRL-2026) were cultured in D-MEM medium containing 10% FBS and 1% penicillin/streptomycin (5% CO2, 37° C.), and seeded into 96-well plates (Corning REF. 353072) at 1×10^4 cells/well. A portion of the wells were prepared with medium only for background measurement without seeding cells. The next day, 400 nM of the test compound (0.004% of the final concentration in DMSO) dissolved in DMSO was added thereto, and the wells were incubated for about 48 hr. A well without adding the test compound was prepared for base activity assay in part.
Cell lysate (solution containing 0.8% digitonin, 2 mM EDTA), reaction solution (solution containing 25 mM Tris-HCl, 0.07% albumin, 0.01% Tween-20, 2 U/mL glucose-6-phosphate dehydrogenase, 5 μM flavin adenine dinucleotide, 1 μM glucose-6-phosphate, 30 μM nicotinamide adenine dinucleotide phosphate, 0.03% 3-(4,5-dimethyl-2-thiazolyl)-2,5-diphenyltetrazolium bromide (MTT), and 50 μM menadione), stop solution (solution containing 0.3 mM dicoumarol and 5 mM potassium dihydrogen phosphate, pH 7.4) were prepared. After the medium was removed, 50 μL of the cell lysate was added and incubated at 37° C. for 10 minutes, followed by shaking at room temperature for 10 minutes. 200 μL of reaction solution was added thereto, and allowed to stand for 5 minutes at room temperature. 50 μL of the stop solution was added thereto, and absorbance was measured at 610 nm on a SpectraMax PLUS384 (Molecular devices) or POWERSCAN HT (DS Pharma Biomedical). The test results were analyzed in Excel, and the NQO1 activity upon addition of 400 nM of test compound was calculated as a ratio from the base without the compound.
The results of each test compound in this test are shown in the following Table 2 (A: 5<NQO1 activity ratio, B: 3<NQO1 activity ratio 5, C: 1.5<NQO1 activity ratio 3).

Chain of GST-fused human Keap1 (amino acid residues: 325-642) protein (Q14145 325-624 limits assumed): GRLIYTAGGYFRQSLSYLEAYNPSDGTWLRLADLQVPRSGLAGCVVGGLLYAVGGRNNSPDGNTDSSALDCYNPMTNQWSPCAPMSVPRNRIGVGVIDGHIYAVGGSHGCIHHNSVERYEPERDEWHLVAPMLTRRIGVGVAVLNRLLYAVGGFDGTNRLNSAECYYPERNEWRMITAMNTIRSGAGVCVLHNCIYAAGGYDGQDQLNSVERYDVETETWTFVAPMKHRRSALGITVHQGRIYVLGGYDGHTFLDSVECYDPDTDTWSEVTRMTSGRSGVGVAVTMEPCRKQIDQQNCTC

| IC50 [1] [nM] | SMILES | fold induction at 0.4 µM [2] | activity ratio ([2]; NQO1 activity upon addition of 400 nM of test compound) |
| --- | --- | --- | --- |
| 10 to 30 | CC[C@@H]1CN(Cc2cc([C@@H](CC(=O)O)c3ccc4c(nnn4CC(F)(F)F)c3C)cc3ccsc23)Cc2nc(O)ccc2O1 (single isomer, unassigned) [Example 27] | > 5 |  |
| 10 to 30 | CC[C@@H]1CN(Cc2cc([C@@H](CC(=O)O)c3ccc4c(nnn4CC(F)(F)F)c3C)cc3ccsc23)Cc2nc(O)ccc2O1 (single isomer, unassigned) [Example 28] |  |  |
| 30 to 300 | CC[C@@H]1CN(Cc2cc([C@@H](CC(=O)O)c3ccn4c(C)nnc4c3C)cc3ccsc23)Cc2nc(O)ccc2O1 (single isomer, unassigned) [Example 52, (3R*)-3-(3,8-Dimethyl[1,2,4]triazolo[4,3-a]pyridin-7-yl)-3-(7-{[(2R)-2-ethyl-7-hydroxy-2,3-dihydropyrido[2,3-f][1,4]oxazepin-4(5H)-yl]methyl}-1-benzothiophen-5-yl)propanoic acid] | 3 to 5 |  |
| 10 to 30 | CC[C@@H]1CN(Cc2cc([C@@H](CC(=O)O)c3ccn4c(C)nnc4c3C)cc3ccsc23)Cc2nc(O)ccc2O1 (single isomer, unassigned) [Example 53, (3S*)-3-(3,8-Dimethyl[1,2,4]triazolo[4,3-a]pyridin-7-yl)-3-(7-{[(2R)-2-ethyl-7-hydroxy-2,3-dihydropyrido[2,3-f][1,4]oxazepin-4(5H)-yl]methyl}-1-benzothiophen-5-yl)propanoic acid] |  | B (B: 3<NQO1 activity ratio 5) |
| 300 to 3000 | Cc1c(C(CC(=O)O)c2cc(CN3Cc4nc(O)ccc4OC4(CC4)[C@H]3C)c3sccc3c2)ccc2c1nnn2C (single isomer, unassigned) [Example 58, (3R*)-3-(1,4-Dimethyl-1H-benzotriazol-5-yl)-3-(7-{[(3′R)-7′-hydroxy-3′-methyl-3′H-spiro[cyclopropane-1,2′-pyrido[2,3-f][1,4]oxazepin]-4′ (5′H)-yl]methyl}-1-benzothiophen-5-yl)propanoic acid] | 1.5 to 3 |  |
| 300 to 3000 | Cc1c(C(CC(=O)O)c2cc(CN3Cc4nc(O)ccc4OC4(CC4)[C@H]3C)c3sccc3c2)ccc2c1nnn2C (single isomer, unassigned) [Example 59, (3S*)-3-(1,4-Dimethyl-1H-benzotriazol-5-yl)-3-(7-{[(3′R)-7′-hydroxy-3′-methyl-3′H-spiro[cyclopropane-1,2′-pyrido[2,3-f][1,4]oxazepin]-4′ (5′H)-yl]methyl}-1-benzothiophen-5-yl)propanoic acid] |  |  |
| 30 to 300 | Cc1c(C(CC(=O)O)c2cc(CN3Cc4nc(O)ccc4OC4(CC4)[C@@H]3C)c3sccc3c2)ccc2c1nnn2C (single isomer, unassigned) [Example 60, (3R*)-3-(1,4-Dimethyl-1H-benzotriazol-5-yl)-3-(7-{[(3′S)-7′-hydroxy-3′-methyl-3′H-spiro[cyclopropane-1,2′-pyrido[2,3-f][1,4]oxazepin]-4′(5′H)-yl]methyl}-1-benzothiophen-5-yl)propanoic acid] | > 5 |  |
| 30 to 300 | Cc1c(C(CC(=O)O)c2cc(CN3Cc4nc(O)ccc4OC4(CC4)[C@@H]3C)c3sccc3c2)ccc2c1nnn2C (single isomer, unassigned) [Example 61, (3S*)-3-(1,4-Dimethyl-1H-benzotriazol-5-yl)-3-(7-{[(3′S)-7′-hydroxy-3′-methyl-3′H-spiro[cyclopropane-1,2′-pyrido[2,3-f][1,4]oxazepin]-4′ (5′H)-yl]methyl}-1-benzothiophen-5-yl)propanoic acid] |  |  |
| 30 to 300 | CC[C@@H]1CN(Cc2cc(C(CC(=O)O)c3ccc4c(nnn4C)c3C)cc3ccsc23)Cc2ncc(O)cc2O1 (single isomer, unassigned) [Example 65, (3R*)-3-(1,4-Dimethyl-1H-benzotriazol-5-yl)-3-(7-{[(2R)-2-ethyl-8-hydroxy-2,3-dihydropyrido[2,3-f][1,4]oxazepin-4(5H)-yl]methyl}-1-benzothiophen-5-yl)propanoic acid] | > 5 |  |
| 30 to 300 | CC[C@@H]1CN(Cc2cc(C(CC(=O)O)c3ccc4c(nnn4C)c3C)cc3ccsc23)Cc2ncc(O)cc2O1 (single isomer, unassigned) [Example 66, (3S*)-3-(1,4-Dimethyl-1H-benzotriazol-5-yl)-3-(7-{[(2R)-2-ethyl-8-hydroxy-2,3-dihydropyrido[2,3-f][1,4]oxazepin-4(5H)-yl]methyl}-1-benzothiophen-5-yl)propanoic acid] |  |  |
| 30 to 300 | Cc1c([C@H](CC(=O)O)c2cc(CN3Cc4nc(O)ccc4CC(C4CC4)C3)c3sccc3c2)ccc2c1nnn2C (single isomer, unassigned) [Example 88, (3R)-3-(7-{[(6S*)-6-Cyclopropyl-2-hydroxy-5,6,7,9-tetrahydro-8H-pyrido[2,3-c]azepin-8-yl]methyl}-1-benzothiophen-5-yl)-3-(1,4-dimethyl-1H-benzotriazol-5-yl)propanoic acid] | > 5 |  |
| 30 to 300 | Cc1c([C@H](CC(=O)O)c2cc(CN3Cc4nc(O)ccc4CC(C4CC4)C3)c3sccc3c2)ccc2c1nnn2C (single isomer, unassigned) [Example 89, (3R)-3-(7-{[(6R*)-6-Cyclopropyl-2-hydroxy-5,6,7,9-tetrahydro-8H-pyrido[2,3-c]azepin-8-yl]methyl}-1-benzothiophen-5-yl)-3-(1,4-dimethyl-1H-benzotriazol-5-yl)propanoic acid] |  |  |
| 30 to 300 | Cc1c([C@H](CC(=O)O)c2cc(CN3Cc4nc(O)ccc4CC(C4CC4)C3)c3sccc3c2)cnc2c1nnn2C (single isomer, unassigned) [Example 90, (3R)-3-(7-{[(6R*)-6-Cyclopropyl-2-hydroxy-5,6,7,9-tetrahydro-8H-pyrido[2,3-c]azepin-8-yl]methyl}-1-benzothiophen-5-yl)-3-(3,7-dimethyl-3H-[1,2,3]triazolo[4,5-b]pyridin-6-yl)propanoic acid] | > 5 |  |
| 30 to 300 | Cc1c([C@H](CC(=O)O)c2cc(CN3Cc4nc(O)ccc4CC(C4CC4)C3)c3sccc3c2)cnc2c1nnn2C (single isomer, unassigned) [Example 91, (3R)-3-(7-{[(6S*)-6-Cyclopropyl-2-hydroxy-5,6,7,9-tetrahydro-8H-pyrido[2,3-c]azepin-8-yl]methyl}-1-benzothiophen-5-yl)-3-(3,7-dimethyl-3H-[1,2,3]triazolo[4,5-b]pyridin-6-yl)propanoic acid] |  |  |
| 10 to 30 | CC[C@@H]1CN(Cc2cc([C@H](CC(=O)O)c3ccc4c(nnn4C)c3C)cc3ccsc23)Cc2nc(O)ccc2O1 [Example 1, (3S)-3-(1,4-Dimethyl-1H-benzotriazol-5-yl)-3-(7-{[(2R)-2-ethyl-7-hydroxy-2,3-dihydropyrido[2,3-f][1,4]oxazepin-4(5H)-yl]methyl}-1-benzothiophen-5-yl)propanoic acid] | > 5 |  |
| 300 to 3000 | CC[C@@H]1CN(Cc2cc([C@H](c3ccc4c(nnn4C)c3C)C(C)(C)C(=O)O)cc3ccsc23)Cc2nc(O)ccc2O1 [Example 12, (3R)-3-(1,4-Dimethyl-1H-benzotriazol-5-yl)-3-(7-{[(2R)-2-ethyl-7-hydroxy-2,3-dihydropyrido[2,3-f][1,4]oxazepin-4(5H)-yl]methyl}-1-benzothiophen-5-yl)-2,2-dimethylpropanoic acid] |  |  |
